Assays:
[1] = tested on: STING activation (IFN-β production in THP-1 cells); assay: Human IFN-β production inhibition test by cGAMP stimulation in THP-1 cells; type: cell-based; design: IFN-β bioinhibitory activity: scale not given here; conditions: 2'3'-cGAMP transfection, 18 hours, IFN-β ELISA; for IC50: Homo sapiens, read-out: IFN-β bioinhibitory activity
How it was run: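 PMA-primed (100 nM, overnight) THP-1 cells pretreated 1 h with compound at 0.001 to 1 μM (0.1% DMSO), then transfected with 0.12 μg/well 2′3′-cGAMP and cultured 18 hours. Supernatant IFN-β measured by ELISA; IC50 by regression against log concentration, normalised to cGAMP-only (100%) and unstimulated (0%) controls.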

human STING (hSTING) = target: T1, human STING (hSTING) (Homo sapiens, UniProt Q86WV6); assay: Inhibition test of intracellular human STING (hSTING) pathway using SEAP reporter cells (HEK-Blue ISG), stimulation with Compound 3; type: cell-based; design: hSTING inhibitory activity: scale not given here; conditions: Compound 3 10 nM stimulation, 21 hours
T1 construct: host or cells: HEK-Blue ISG cells (HEK293-derived SEAP reporter line)
How it was run: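 HEK-Blue ISG cells with IRF-inducible SEAP reporter, pretreated 1 h with compound (final 0.1 to 10 μM), then stimulated with Compound 3 (final 10 nM) for 21 h at 37° C. Supernatant SEAP measured colorimetrically; IC50 from log-concentration regression, normalized to stimulated (100%) and unstimulated (0%) controls.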

T1 sequence (Q86WV6 whole entry H232R): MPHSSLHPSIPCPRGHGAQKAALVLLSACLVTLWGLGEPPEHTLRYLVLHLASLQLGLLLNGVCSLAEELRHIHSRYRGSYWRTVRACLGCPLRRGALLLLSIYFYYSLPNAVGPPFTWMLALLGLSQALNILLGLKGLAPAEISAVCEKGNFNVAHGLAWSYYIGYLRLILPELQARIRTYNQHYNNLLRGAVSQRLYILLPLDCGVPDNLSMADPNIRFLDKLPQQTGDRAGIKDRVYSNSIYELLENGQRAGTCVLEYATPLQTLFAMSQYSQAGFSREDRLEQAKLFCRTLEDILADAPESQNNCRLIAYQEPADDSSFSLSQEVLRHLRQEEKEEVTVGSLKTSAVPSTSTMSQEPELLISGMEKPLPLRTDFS

SMILES | hSTING inhibitory activity (human STING (hSTING)) | IC50 [1] [nM] | IFN-β bioinhibitory activity [1]
Fc1ccc(Oc2ccc3nc(Nc4c[nH]c5ccc(Cl)cc45)n(C4CC4)c3c2)cc1 [Embodiment 196, N-(5-Chloro-1H-indol-3-yl)-1-cyclopropyl-6-(4-fluorophenoxy)-1H-benzo[d]imidazol-2-amine] | * * * | – | * *
Cn1c(Nc2c[nH]c3ccc(Cl)nc23)nc2cc(OC(F)(F)F)ccc21 [Embodiment 210, N-(5-Chloro-1H-pyrrolo[3,2-b]pyridin-3-yl)-1-methyl-5-(trifluoromethoxy)-1H-benzo[d] imidazol-2-amine] | * * | – | * *
CCCn1c(Nc2c[nH]c3ccc(Cl)cc23)nc2cc(C(F)(F)F)ccc21 [Embodiment 212, N-(5-Chloro-1H-indol-3-yl)-1-propyl-5-(trifluoromethyl)-1H-benzo[d]imidazo-2-amine] | * * * | – | * * *
C=CCn1c(Nc2c[nH]c3ccc(Cl)cc23)nc2cc(C(F)(F)F)ccc21 [Embodiment 213, 1-allyl-N-(5-chloro-1H-indol-3-yl)-5-(trifluoromethyl)-1H-benzo[d]imidazol-2-amine] | * * * | – | * *
C#CCn1c(Nc2c[nH]c3ccc(Cl)cc23)nc2cc(C(F)(F)F)ccc21 [Embodiment 214, N-(5-Chloro-1H-indol-3-yl)-1-(pro-2-yl)-5-(trifluoromethyl)-1H-benzo[d]imidazol-2-amine] | * * * | – | * * *
FC(F)(F)c1ccc2c(c1)nc(Nc1c[nH]c3ccc(Cl)cc13)n2CC1CC1 [Embodiment 215, N-(5-Chloro-1H-indol-3-yl)-1-(cyclopropylmethyl)-5-(trifluoromethyl)-1H-benzo[d] imidazol-2-amine] | * * * | – | * *
CN(C)n1c(Nc2c[nH]c3ccc(Cl)cc23)nc2cc(C(F)(F)F)ccc21 [Embodiment 216, N2-(5-Chloro-1H-indol-3-yl)-N1,N1-dimethyl-5-(trifluoromethyl)-1H-benzo[d]imidazole-1,2-diamine] | * * * | – | * * *
CCn1c(Nc2c[nH]c3ccc(Cl)cc23)nc2cc(C(F)(F)F)ccc21 [Embodiment 217, N-(5-Chloro-1H-indol-3-yl)-1-ethyl-5-(trifluoromethyl)-1H-benzo[d]imidazol-2-amine] | * * * | – | * *
CC(C)n1c(Nc2c[nH]c3ccc(Cl)cc23)nc2cc(C(F)(F)F)ccc21 [Embodiment 218, N-(5-Chloro-1H-indol-3-yl)-1-isopropyl-5-(trifluoromethyl)-1H-benzo[d]imidazol-2-amine] | * * * | – | * *
[2H]C([2H])([2H])n1c(Nc2c[nH]c3ccc(Cl)cc23)nc2cc(C(F)(F)F)ccc21 [Embodiment 221, N-(5-Chloro-1H-indol-3-yl)-1-(methyl-d3)-5-(trifluoromethyl)-1H-benzo[d]imidazol-2-mine] | * * * | – | * *
COCCn1c(Nc2c[nH]c3ccc(Cl)cc23)nc2cc(C(F)(F)F)ccc21 [Embodiment 222, N-(5-Chloro-1H-indol-3-yl)-1-(2-methoxyethyl)-5-(trifluoromethyl)-1H-benzo[d]imidazol-2-amine] | * * * | – | * *
OCCn1c(Nc2c[nH]c3ccc(Cl)cc23)nc2cc(C(F)(F)F)ccc21 [Embodiment 223, 2-{2-[(5-chloro-1H-indol-3-yl)amino]-5-(trifluoromethyl)-1H-benzo[d]imidazol-1-yl}ethanol] | * * * | – | * *
FC(F)(F)c1ccc2c(c1)nc(Nc1c[nH]c3ccc(Br)cc13)n2C1CC1 [Embodiment 224, N-(5-bromo-1H-indol-3-yl)-1-cyclopropyl-5-(trifluoromethyl)-1H-benzo[d]imidazol-2-amine] | * * * | – | * *
Cn1c(Nc2c[nH]c3ccc(Cl)cc23)nc2cc(C(F)(F)F)cc(F)c21 [Embodiment 225, N-(5-Chloro-1H-indol-3-yl)-7-fluoro-1-methyl-5-(trifluoromethyl)-1H-benzo[d]imidazol-2-amine] | * * * | – | * *
FC(F)(F)c1ccc2c(c1)nc(Nc1c[nH]c3ccc(Cl)cc13)n2C1COC1 [Embodiment 226, N-(5-Chloro-1H-indol-3-yl)-1-(oxetan-3-yl)-5-(trifluoromethyl)-1H-benzo[d]imidazol-2-amine] | * * | – | * *
CC#CCn1c(Nc2c[nH]c3ccc(Cl)cc23)nc2cc(C(F)(F)F)ccc21 [Embodiment 228, 1-(But-2-yn-1-yl)-N-(5-rolo-1H-indol-3-yl)-5-(trifluoromethyl)-1H-benzo[d]imidazol-2-amine] | * * | – | * *
FC(F)(F)Oc1ccc2c(c1)nc(Nc1c[nH]c3ccc(Cl)cc13)n2C1CC1 [Embodiment 231, N-(5-Chloro-1H-indol-3-yl)-1-cyclopropyl-5-(trifluoromethoxy)-1H-benzo[d]imidazol-2-amine] | * * * | – | * *
FC(F)(F)c1ccc2c(c1)nc(Nc1c[nH]c3ccc(I)cc13)n2C1CC1 [Embodiment 232, 1-Cyclopropyl-N-(5-iodo-1H-indol-3-yl)-5-(trifluoromethyl)-1H-benzo[d]imidazol-2-amine] | * * | – | * *
Fc1cc(C(F)(F)F)cc2nc(Nc3c[nH]c4ccc(Cl)cc34)n(C3CC3)c12 [Embodiment 233, N-(5-Chloro-1H-indol-3-yl)-1-cyclopropyl-7-fluoro-5-(trifluoromethyl)-1H-benzo[d]imidazol-2-amine] | * * * | – | * *

Further lines, with some results ahead:

hSTING inhibitory activity (human STING (hSTING)) | IC50 [1] [nM] | SMILES | IFN-β bioinhibitory activity [1]
* * * | – | OCCn1c(Nc2c[nH]c3ccc(Cl)cc23)nc2cc(C(F)(F)F)cc(F)c21 [Embodiment 236, 2-{2-[(5-chloro-1H-indol-3-yl)amino]-7-fluoro-5-(trifluoromethyl)-1H-benzo[d]imidazol-1-yl}ethane-1-oar] | * *
* * * | – | CN(C)n1c(Nc2c[nH]c3ccc(Cl)cc23)nc2cc(C(F)(F)F)cc(F)c21 [Embodiment 237, N2-(5-Chloro-1H-indol-3-yl)-7-fluoro-N1,N1-dimethyl-5-(trifluoromethyl)-1H-benzo[d] imidazole-1,2-diamine] | * *
* * * | – | CCCn1c(Nc2c[nH]c3ccc(Cl)cc23)nc2cc(C(F)(F)F)cc(F)c21 [Embodiment 238, N-(5-Chloro-1H-indol-3-yl)-7-fluoro-1-propyl-5-(trifluoromethyl)-1H-benzo[d]imidazol-2-amine] | * *
* * * | – | CCn1c(Nc2c[nH]c3ccc(Cl)cc23)nc2cc(C(F)(F)F)cc(F)c21 [Embodiment 240] | * *
* * * | – | C#CCn1c(Nc2c[nH]c3ccc(Cl)cc23)nc2cc(C(F)(F)F)cc(F)c21 [Embodiment 241, N-(5-Chloro-1H-indol-3-yl)-7-fluoro-1-(prop-2-yn-1-yl)-5-(trifluoromethyl)-1H-benzo[d] imidazole-2-amine] | * *
* * * | – | CC(C)n1c(Nc2c[nH]c3ccc(Cl)cc23)nc2cc(C(F)(F)F)cc(F)c21 [Embodiment 242, N-(5-Chloro-1H-indol-3-yl)-7-fluoro-1-isopropyl-5-(trifluoromethyl)-1H-benzo[d]imidazol-2-amine] | * *
* * * | – | CCCn1c(Nc2c[nH]c3ccc(Cl)cc23)nc2cc(OC(F)(F)F)ccc21 [Embodiment 244, N-(5-Chloro-1H-indol-3-yl)-1-propyl-5-(trifluoromethoxy)-1H-benzo [d]imidazol-2-amine] | * *
* * | 100 to 1000 | OCCn1c(Nc2c[nH]c3ccc(Cl)cc23)nc2cc(OC(F)(F)F)ccc21 [Embodiment 245, 2-{2-[(5-Chloro-1H-indol-3-yl)amino]-5-(trifluoromethoxy)-1H-benzo[d]imidazol-1-yl}ethan-1-oar] | –
* * * | – | Cn1c(Nc2c[nH]c3ccc(Cl)cc23)nc2cc(OC(F)(F)F)ccc21 [Embodiment 246, N-(5-Chloro-1H-indol-3-yl)-1-methyl-5-(trifluoromethoxy)-1H-benzo[d]imidazol-2-amine] | * * *
* * | 100 to 1000 | FC(F)(F)c1ccc2c(c1)nc(Nc1c[nH]c3ccc(Cl)cc13)n2N1CCCC1 [Embodiment 247, N-(5-Chloro-1H-indol-3-yl)-1-(pyrrolidin-1-yl)-5-(trifluoromethyl)-1H-benzo[d]imidazol-2-amine] | –
* * * | – | Cc1cc(C(F)(F)F)cc2nc(Nc3c[nH]c4ccc(Cl)cc34)n(C)c12 [Embodiment 248, N-(5-Chloro-1H-indol-3-yl)-1,7-dimethyl-5-(trifluoromethyl)-1H-benzo[d]imidazol-2-amine] | * *
